Source: patent publication US9644240B2, “Disease susceptibility” (Leiden University, priority 2009, dated 2017)
Where a chain is given by its changes, count along the chain named.

Tests used:
four MR haplotypes = test: Ligand induced transactivation on a TAT-3 promoter in Cos-1 cells, comparison among haplotypes; type: cell-based, human; conditions: for difference in transactivation responses among the four MR haplotypes: reporter (fluc)/control (rluc) ratios, three experiments pooled
Method: (§1) Cos-1 cells (African green monkey kidney cells) were cultured in DMEM high glucose supplemented with 10% FCS (Gibco, Paisley, UK). Cells were seeded in 24-well plates (Greiner Bio-One, Alphen a/d Rijn, The Netherlands) at 3×10^4 cells/well in DMEM supplemented with charcoal-stripped serum. The cells were transfected the next day using SuperFect (Qiagen, Venlo, The Netherlands). hMR plasmids and the reporter plasmid TAT3-Luc (tyrosine amino transferase triple hormone response element) were used at 100 ng/well. The control plasmid pCMV-R (Promega, Leiden, The Netherlands) coding for Renilla luciferase controlled by cytomegalovirus (CMV) promoter was used (10 ng/well). One day after transfection, the cells were treated with cortisol (Sigma-Aldrich, Zwijndrecht, the Netherlands) in concentrations ranging from 0 to 10^−8 M. After 24 h of incubation the cells were harvested in passive lyses buffer (Promega) and firefly and Renilla luciferase activity was determined using a dual label reporter assay (Promega) and a luminometer (CENTRO XS3 LB960, Berthold, Bad Wildbad, Germany). Three separate experiments were performed and all three experiments were performed in triplicate.
(§2) The in vitro experiments were analyzed using GraphPad prism 4 (GraphPad software Inc, San Diego, Calif.). In the transactivation assays firefly/renilla luciferase ratios were normalized against the highest signal and background expression was subtracted. MR protein expression measured by western blot was normalized against γ-Tubulin. The differences between the four hMR variants were analyzed with one and two-way ANOVAs with Bonferroni posttests. In the radioligand binding assay one-binding-site curve fitting was used to determine the dissociation constant (Kd) and maximal binding (Bmax). The specific MR cortisol binding was obtained by subtracting the non-specific binding from the total binding. The difference in Kd and Bmax between MRI180 and MR180V was tested with a t-test. In vitro results are shown as the mean±SD.

MRI180 = target: T1, MRI180 (Homo sapiens, UniProt P08235); test: [3H]Cortisol ligand binding assay, cytosol of transfected Cos-1 cells; conditions: MRI180, mean±SD
T1 construct: expressed in transfected cells; host or cells: Cos-1 cells (African green monkey kidney)
T1 sequence (P08235 1-984): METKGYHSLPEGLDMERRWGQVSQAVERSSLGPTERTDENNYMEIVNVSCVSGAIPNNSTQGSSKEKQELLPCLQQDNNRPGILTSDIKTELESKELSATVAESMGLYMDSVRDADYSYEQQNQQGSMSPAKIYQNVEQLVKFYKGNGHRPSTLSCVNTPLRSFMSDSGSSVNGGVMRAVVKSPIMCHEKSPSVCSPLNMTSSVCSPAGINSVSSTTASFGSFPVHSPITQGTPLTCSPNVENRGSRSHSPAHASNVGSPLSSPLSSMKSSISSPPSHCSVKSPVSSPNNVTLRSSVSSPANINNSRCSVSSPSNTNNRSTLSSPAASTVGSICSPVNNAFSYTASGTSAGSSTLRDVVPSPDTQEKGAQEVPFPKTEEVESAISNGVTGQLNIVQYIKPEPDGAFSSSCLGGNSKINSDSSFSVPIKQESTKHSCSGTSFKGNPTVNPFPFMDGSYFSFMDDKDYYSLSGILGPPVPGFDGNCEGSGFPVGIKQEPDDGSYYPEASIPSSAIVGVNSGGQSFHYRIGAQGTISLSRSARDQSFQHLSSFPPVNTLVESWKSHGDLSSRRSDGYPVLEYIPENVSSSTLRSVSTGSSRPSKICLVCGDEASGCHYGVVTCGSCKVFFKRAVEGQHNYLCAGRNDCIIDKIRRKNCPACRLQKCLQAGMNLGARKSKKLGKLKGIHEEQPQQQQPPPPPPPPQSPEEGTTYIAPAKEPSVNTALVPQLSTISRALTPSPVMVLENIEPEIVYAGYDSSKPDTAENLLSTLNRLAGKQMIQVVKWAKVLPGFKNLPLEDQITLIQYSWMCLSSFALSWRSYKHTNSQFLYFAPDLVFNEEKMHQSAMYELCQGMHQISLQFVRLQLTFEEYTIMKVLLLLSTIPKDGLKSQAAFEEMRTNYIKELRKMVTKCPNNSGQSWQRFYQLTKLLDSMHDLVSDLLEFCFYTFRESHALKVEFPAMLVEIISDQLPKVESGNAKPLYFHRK
Method: (§3) Cos-1 cells were seeded in 20 cm plates (Greiner Bio-One, Alphen a/d Rijn, The Netherlands) at 2×10^6 cells/plate in DMEM supplemented with 5% charcoal-stripped serum. Cells were transfected the next day using Mirus Transit-COS reagent according to the manufacturer's protocol (Sopachem, Ochten, The Netherlands) and hMR plasmids were used at 30 μg/plate. After 24 hours medium was replaced with serum free DMEM and after another 24 hours cells were pelleted. All further steps are carried out at 0° C. Cells were resuspended in 3.5 ml buffer (5 mM Tris-HCl (pH 7.4), 1 mM EDTA, 1 mM B-Mercaptoethanol, 10 mM Na-Molybdate, 5% glycerol) per plate and 3×15 seconds homogenised using an electric homogenizer (Pro200, Pro scientific, Oxford, Conn., USA). The homogenate was centrifuged (100.000×g, 2° C.) to obtain cytosol.
(§4) 200 μl cytosol was incubated with [^3H]Cortisol (70 Ci/mmol, Amersham, Buckinghamshire, UK) to asses total binding or [^3H]Cortisol and a 500 fold excess of dexamethasone (Sigma-Aldrich, Zwijndrecht, the Netherlands) to asses non-specific binding. [^3H]Cortisol was used at 0.5 nM, 1 nM, 1.5 nM, 2.5 nM, 3.5 nM, 5 nM. After vortexing and 3 hours incubation on ice bound and free [^3H]Cortisol fractions were separated by Sephadex LH-20 as described previously (de Kloet et al., 1975). Fractions containing the receptor bound radioligand were collected, vortexed with 3 ml Ultima Gold scintillation fluid (Perkin Elmer, Waltham, Mass., USA) and radioactivity was measured in a liquid scintillation analyzer (1900CA Packard, Perkin Elmer). Three separate experiments were performed and all three experiments were performed in triplicate.
as §2, with “binding.” for “binding. The difference in Kd and Bmax between MRI180 and MR180V was tested with a t-test. In vitro results are shown as the mean±SD.”

MR180V = target: T2, MR180V (Homo sapiens, UniProt P08235); test: as above; conditions: mean±SD
T2 construct: expressed in transfected cells; host or cells: Cos-1 cells (African green monkey kidney)
T2 sequence (P08235 1-984): T1 sequence (P08235 1-984)
Method: as §3, §4
as §2, with “binding.” for “binding. The difference in Kd and Bmax between MRI180 and MR180V was tested with a t-test. In vitro results are shown as the mean±SD.”

MR Hap 1 (GA) = target: T3, MR Hap 1 (GA) (Homo sapiens, UniProt P08235); test: Cortisol-induced transactivation assay, TAT3-Luc reporter in Cos-1 cells; type: cell-based; conditions: TAT-3 promoter, 24 h, read-out: EC50 of cortisol-induced luciferase transcription
T3 construct: expressed in transfected cells; host or cells: Cos-1 cells (African green monkey kidney)
T3 sequence (P08235 1-984): T1 sequence (P08235 1-984)
Method: as §1
as §2, with “binding.” for “binding. The difference in Kd and Bmax between MRI180 and MR180V was tested with a t-test. In vitro results are shown as the mean±SD.”

MR Hap 4 (GG) = target: T4, MR Hap 4 (GG) (Homo sapiens, UniProt P08235); test: as above; type: cell-based; conditions: TAT-3 promoter, 24 h, read-out: EC50 of cortisol-induced luciferase transcription
T4 construct: expressed in transfected cells; host or cells: Cos-1 cells (African green monkey kidney)
T4 sequence (P08235 1-984 V241A): T1 sequence (P08235 1-984) with V241A
Method: as §1
as §2, with “binding.” for “binding. The difference in Kd and Bmax between MRI180 and MR180V was tested with a t-test. In vitro results are shown as the mean±SD.”

MR Hap 2 (CA) = target: T5, MR Hap 2 (CA) (Homo sapiens, UniProt P08235); test: as above; type: cell-based; conditions: TAT-3 promoter, 24 h, read-out: EC50 of cortisol-induced luciferase transcription
T5 construct: expressed in transfected cells; host or cells: Cos-1 cells (African green monkey kidney)
T5 sequence (P08235 1-984): T1 sequence (P08235 1-984)
Method: as §1
as §2, with “binding.” for “binding. The difference in Kd and Bmax between MRI180 and MR180V was tested with a t-test. In vitro results are shown as the mean±SD.”

MR Hap 3 (CG) = target: T6, MR Hap 3 (CG) (Homo sapiens, UniProt P08235); test: as above; type: cell-based; conditions: TAT-3 promoter, 24 h, read-out: EC50 of cortisol-induced luciferase transcription
T6 construct: expressed in transfected cells; host or cells: Cos-1 cells (African green monkey kidney)
T6 sequence (P08235 1-984 V241A): T1 sequence (P08235 1-984) with V241A
Method: as §1
as §2, with “binding.” for “binding. The difference in Kd and Bmax between MRI180 and MR180V was tested with a t-test. In vitro results are shown as the mean±SD.”

[1] = three experiments pooled, read-out: dissociation constant (Kd) of cortisol binding

In the case of `C[C@]12CCC(=O)C=C1CC[C@@H]1[C@@H]2[C@@H](O)C[C@]2(C=O)[C@@H](C(=O)CO)CC[C@@H]12` [Aldosterone], the “difference in transactivation responses among the four MR haplotypes” value (four MR haplotypes) is reported as “did not show significantly different responses”.

With `C[C@]12CCC(=O)C=C1CC[C@@H]1[C@@H]2[C@@H](O)C[C@@]2(C)[C@H]1CC[C@]2(O)C(=O)CO` [cortisol] the “maximal luciferase expression (Emax)” value (four MR haplotypes; Hap 1 (GA) and 4 (GG) compared with Hap 2 (CA) and 3 (CG)) was “significant lower maximal luciferase expression (Emax)”, the “difference in transactivation responses among the four MR haplotypes” value (four MR haplotypes) was “significantly different responses” and the “maximal binding (Bmax) of cortisol” value (MRI180) was 6539±499 binding sites/cell. The Kd (MRI180; [1]) was 0.86 ± 0.2 nM, the “maximal binding (Bmax) of cortisol” value (MR180V) was 7112±371 binding sites/cell and the Kd (MR180V; [1]) was 0.93 ± 0.16 nM. It also gave an EC50 (MR Hap 1 (GA)) of 0.039 nM, an EC50 (MR Hap 4 (GG)) of 0.073 nM and an EC50 (MR Hap 2 (CA)) of 0.017 nM. For the same compound, the EC50 (MR Hap 3 (CG)) was 0.019 nM.
